Experimental data taken from patent US20230087196A1, “Application of circIKBKB Inhibitors and Test Reagents thereof in Diagnosis, Treatment and Prognosis Kits for Breast Cancer Bone Metastasis” (SUN YAT-SEN UNIVERSITY CANCER CENTER, priority 2021, published 2023).

Tests used:
SCP2 cells [1] = test: In vivo bone metastasis prevention model: SCP2 cells into left ventricle of nude mice, eIF4A3-IN-2 intragastric from the second day; conditions: 1 mg/kg intragastric from the second day after SCP2 injection, vs vehicle
Procedure: Experiment 2: SCP2 cells were injected into the left ventricle of nude mice (1*10^6 cells/mouse), and eIF4A3-IN-2 (1 mg/kg) was administered to the mice by intragastric administration from the second day. The mice were sacrificed after 60 days, and hindlimbs of the mice were taken for μCT analysis, H&E and TRAP staining.

SCP2 cells [2] = test: In vivo established bone metastasis model: SCP2 cells into left ventricle of nude mice, eIF4A3-IN-2 started when bone-metastatic tumors formed; conditions: 1 mg/kg intragastric, started when BLI signal reached 2×10^7 p/sec/cm^2/sr, after 5 weeks treatment, vs vehicle
Procedure: Experiment 3: SCP2 cells were injected into the left ventricle of nude mice (1*10^6 cells/mouse). eIF4A3-IN-2 (1 mg/kg) treatment via intragastric administration was started when bioluminescence signal of bone-metastatic tumors reached 2×10^7 p/sec/cm^2/sr. The mice were sacrificed after 60 days, and the hindlimbs of the mice were taken for μCT analysis, H&E and TRAP staining.

O=C(c1cnn2cc(Br)ccc12)N1CCN(C(=O)c2ccc(Br)cc2)[C@@H](c2ccc(Cl)cc2)C1 [eIF4A3-IN-2]
number of TRAP+-osteoclasts in bone surface area (SCP2 cells [1]): less
onsets of bone-metastases and bone-metastasis burden (SCP2 cells [1]): significantly delayed
osteolytic areas (SCP2 cells [1]): less
bone-metastatic tumor burden (SCP2 cells [2]): decreased
onsets of bone metastases (SCP2 cells [2]): dramatically reduced
